Consider 31 molecules from US20240199546A1, “INHIBITORS OF SOLUTE CARRIER FAMILY 6A MEMBER 19 (SLC6A19) AND METHODS OF USE THEREOF” (Maze Therapeutics, Inc., priority 2022, published 2024).

A word on the IC50: it is the point on the concentration scale where inhibition reaches its midpoint.

The target of this assay is T1, human SLC6A19 and TMEM27 (Homo sapiens, UniProt Q695T7).
T1 construct: expressed in transfected cells
T1 sequence (Q695T7 1-634): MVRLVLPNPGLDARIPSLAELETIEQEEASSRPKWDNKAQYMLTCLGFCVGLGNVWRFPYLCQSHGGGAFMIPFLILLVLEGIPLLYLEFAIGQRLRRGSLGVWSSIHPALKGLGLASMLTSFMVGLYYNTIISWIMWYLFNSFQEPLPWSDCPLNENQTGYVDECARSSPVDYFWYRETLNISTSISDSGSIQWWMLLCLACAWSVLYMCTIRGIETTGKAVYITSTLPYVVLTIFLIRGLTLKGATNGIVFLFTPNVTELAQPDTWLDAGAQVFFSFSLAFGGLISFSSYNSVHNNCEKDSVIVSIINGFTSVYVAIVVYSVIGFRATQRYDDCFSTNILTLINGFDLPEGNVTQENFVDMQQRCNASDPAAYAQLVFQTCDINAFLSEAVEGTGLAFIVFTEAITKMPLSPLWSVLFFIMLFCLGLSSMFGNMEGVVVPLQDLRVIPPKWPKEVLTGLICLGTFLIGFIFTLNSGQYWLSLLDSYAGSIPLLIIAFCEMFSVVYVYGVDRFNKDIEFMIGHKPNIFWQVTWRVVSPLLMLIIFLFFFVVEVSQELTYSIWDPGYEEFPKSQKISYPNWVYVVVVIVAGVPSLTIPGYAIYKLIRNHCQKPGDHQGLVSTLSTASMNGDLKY
T1 sequence (Q9HBJ8 15-222 partner): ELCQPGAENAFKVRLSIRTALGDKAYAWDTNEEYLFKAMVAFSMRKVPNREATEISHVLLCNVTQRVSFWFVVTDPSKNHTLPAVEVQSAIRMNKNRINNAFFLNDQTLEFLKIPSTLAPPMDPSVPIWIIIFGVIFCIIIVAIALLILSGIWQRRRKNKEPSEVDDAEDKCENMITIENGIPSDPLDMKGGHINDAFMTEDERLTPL
Briefly: Radiolabelled (3H) leucine uptake in CHO cells with doxycycline-inducible expression of human SLC6A19 and TMEM27 (Example B-1). Format: cell-based. Particulars: CHO cells with doxycycline-inducible expression of human SLC6A19 and TMEM27, read-out: SLC6A19_Radioligand Uptake Assay IC50. The gist of the method:
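CHO cells were induced with doxycycline for 18 h at 37 °C, washed in HBSS, then exposed to compounds for 1 h: 8-point, 3-fold dilutions in duplicate, 0.5% DMSO final. Uptake measured by scintillation counting after 2 h shaking. Activity normalized with positive control as 0% and DMSO as 100%.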
As to `O=C(NCc1cc2cc(Cl)c(OCc3cscn3)cc2[nH]1)[C@H]1C[C@@H]1F` [Compound 544, (1R,2S)-N-((5-chloro-6-(thiazol-4-ylmethoxy)-1H-indol-2-yl)methyl)-2-fluorocyclopropane-1-carboxamide], the IC50 was 119 nM.
As to `O=C(NCc1cc2cc(Cl)c(OCc3cscn3)cc2[nH]1)C12CC(C1)C2` [Compound 552, N-((5-chloro-6-(thiazol-4-ylmethoxy)-1H-indol-2-yl)methyl)bicyclo[1.1.1]pentane-1-carboxamide], the IC50 came to 340 nM.
For `O=C(NCc1cc2cc(Cl)c(OCc3cscn3)cc2[nH]1)C1CC12CC2` (stereo not shown) [Compound 553, N-((5-chloro-6-(thiazol-4-ylmethoxy)-1H-indol-2-yl)methyl)spiro[2.2]pentane-1-carboxamide] the value was 342 nM; for `O=C(CC(F)(F)F)NCc1cc2cc(Cl)c(OCc3cscn3)cc2[nH]1` [Compound 554, N-((5-chloro-6-(thiazol-4-ylmethoxy)-1H-indol-2-yl)methyl)-3,3,3-trifluoropropanamide], 214 nM; for `O=C(CC12CC(C1)C2)NCc1cc2cc(Cl)c(OCc3cscn3)cc2[nH]1` [Compound 555, 2-(bicyclo[1.1.1]pentan-1-yl)-N-((5-chloro-6-(thiazol-4-ylmethoxy)-1H-indol-2-yl)methyl)acetamide], 3040 nM.
On to `O=C(NCc1cc2cc(Cl)c(OCc3cscn3)cc2[nH]1)C12CCC(CC1)C2` [Compound 556, N-((5-chloro-6-(thiazol-4-ylmethoxy)-1H-indol-2-yl)methyl)bicyclo[2.2.1]heptane-1-carboxamide], for which the IC50 turned out to be 1200 nM.
Take `O=C(NCc1cc2cc(Cl)c(OCc3cscn3)cc2[nH]1)C1CC2(CCC2)C1` [Compound 557, N-((5-chloro-6-(thiazol-4-ylmethoxy)-1H-indol-2-yl)methyl)spiro[3.3]heptane-2-carboxamide]: the IC50 was above 8240 nM.
For `O=C(NCc1cc2cc(Cl)c(OCc3cscn3)cc2[nH]1)C1CC12CCC2` (stereo not shown) [Compound 558, N-((5-chloro-6-(thiazol-4-ylmethoxy)-1H-indol-2-yl)methyl)spiro[2.3]hexane-1-carboxamide], the IC50 was 1030 nM.
For `O=C(NCc1cc2cc(Cl)c(OCc3cscn3)cc2[nH]1)C1(C(F)F)CC1` [Compound 559, N-((5-chloro-6-(thiazol-4-ylmethoxy)-1H-indol-2-yl)methyl)-1-(difluoromethyl)cyclopropane-1-carboxamide] the value was 196 nM; for `CC1CC(C(=O)NCc2cc3cc(Cl)c(OCc4cscn4)cc3[nH]2)C1` (stereo not shown) [Compound 561, N-((5-chloro-6-(thiazol-4-ylmethoxy)-1H-indol-2-yl)methyl)-3-methylcyclobutane-1-carboxamide], 570 nM.
On to `[2H]C([2H])([2H])C(=O)NCc1cc2cc(Cl)c(OCc3cc(C)no3)cc2[nH]1` [Compound 562, N-((5-chloro-6-((3-methylisoxazol-5-yl)methoxy)-1H-indol-2-yl)methyl)acetamide-2,2,2-d3], for which the IC50 came to 83.3 nM.
As for `Cc1cc(COc2cc3[nH]c(CNC(=O)C(F)F)cc3cc2Cl)on1` [Compound 563, N-((5-chloro-6-((3-methylisoxazol-5-yl)methoxy)-1H-indol-2-yl)methyl)-2,2-difluoroacetamide], the IC50 is 82.2 nM.
Next, `Cc1cc(COc2cc3[nH]c(CNC(=O)CC(F)(F)F)cc3cc2Cl)on1` [Compound 564, N-((5-chloro-6-((3-methylisoxazol-5-yl)methoxy)-1H-indol-2-yl)methyl)-3,3,3-trifluoropropanamide]: 174 nM; `Cc1cc(COc2cc3[nH]c(CNC(=O)C4(C(F)F)CC4)cc3cc2Cl)on1` [Compound 565, N-((5-chloro-6-((3-methylisoxazol-5-yl)methoxy)-1H-indol-2-yl)methyl)-1-(difluoromethyl)cyclopropane-1-carboxamide]: 286 nM.
Next, `[2H]C([2H])([2H])C(=O)NCc1cc2cc(F)c(OCc3cscn3)cc2[nH]1` [Compound 566, N-((5-fluoro-6-(thiazol-4-ylmethoxy)-1H-indol-2-yl)methyl)acetamide-2,2,2-d3]: 146 nM.
For `O=C(NCc1cc2cc(F)c(OCc3cscn3)cc2[nH]1)C(F)F` [Compound 567, 2,2-difluoro-N-((5-fluoro-6-(thiazol-4-ylmethoxy)-1H-indol-2-yl)methyl)acetamide] the value was 182 nM.
As for `O=C(CC(F)(F)F)NCc1cc2cc(F)c(OCc3cscn3)cc2[nH]1` [Compound 568, 3,3,3-trifluoro-N-((5-fluoro-6-(thiazol-4-ylmethoxy)-1H-indol-2-yl)methyl)propanamide], the half-inhibitory concentration (IC50) worked out at 337 nM.
For the molecule `O=C(NCc1cc2cc(F)c(OCc3cscn3)cc2[nH]1)C1(C(F)F)CC1` [Compound 569, 1-(difluoromethyl)-N-((5-fluoro-6-(thiazol-4-ylmethoxy)-1H-indol-2-yl)methyl)cyclopropane-1-carboxamide], the IC50 came out at 121 nM.
For `[2H]C([2H])([2H])C(=O)NCc1cc2cc(Cl)c(OCc3cscn3)cc2[nH]1` [Compound 570, N-((5-chloro-6-(thiazol-4-ylmethoxy)-1H-indol-2-yl)methyl)acetamide-2,2,2-d3], the IC50 amounted to 80.4 nM.
Next, `Cc1cc(COc2cc3[nH]c(CNC(=O)C4(F)CC4)cc3cc2Cl)on1` [Compound 571, N-((5-chloro-6-((3-methylisoxazol-5-yl)methoxy)-1H-indol-2-yl)methyl)-1-fluorocyclopropane-1-carboxamide]: 161 nM; `Cc1cc(COc2cc3[nH]c(CNC(=O)C4(F)CC4)cc3cc2F)on1` [Compound 572, 1-fluoro-N-((5-fluoro-6-((3-methylisoxazol-5-yl)methoxy)-1H-indol-2-yl)methyl)cyclopropane-1-carboxamide]: 113 nM; `Cc1cc(COc2cc3[nH]c(CNC(=O)[C@H]4CCN4C)cc3cc2Cl)on1` [Compound 575, (R)-N-((5-chloro-6-((3-methylisoxazol-5-yl)methoxy)-1H-indol-2-yl)methyl)-1-methylazetidine-2-carboxamide]: 3050 nM.
As to `Cc1cc(COc2cc3[nH]c(CNC(=O)[C@@H]4CCN4C)cc3cc2Cl)on1` [Compound 576, (S)-N-((5-chloro-6-((3-methylisoxazol-5-yl)methoxy)-1H-indol-2-yl)methyl)-1-methylazetidine-2-carboxamide], the IC50 was found to be 824 nM.
Consider `Cc1cc(COc2cc3[nH]c(CNC(=O)[C@@H]4CCCN4C)cc3cc2Cl)on1` [Compound 577, (S)-N-((5-chloro-6-((3-methylisoxazol-5-yl)methoxy)-1H-indol-2-yl)methyl)-1-methylpyrrolidine-2-carboxamide], for which the half-inhibitory concentration (IC50) was 1440 nM.
For `Cc1cc(COc2cc3[nH]c(CNC(=O)[C@H]4CCCN4C)cc3cc2Cl)on1` [Compound 578, (R)-N-((5-chloro-6-((3-methylisoxazol-5-yl)methoxy)-1H-indol-2-yl)methyl)-1-methylpyrrolidine-2-carboxamide] the value was above 5550 nM.
In the case of `Cc1cc(COc2cc3[nH]c(CNC(=O)CN(C)C)cc3cc2Cl)on1` [Compound 579, N-((5-chloro-6-((3-methylisoxazol-5-yl)methoxy)-1H-indol-2-yl)methyl)-2-(dimethylamino)acetamide], the IC50 came out at 587 nM.
Next, `CN(C)CC(=O)NCc1cc2cc(Cl)c(OCc3cscn3)cc2[nH]1` [Compound 580, N-((5-chloro-6-(thiazol-4-ylmethoxy)-1H-indol-2-yl)methyl)-2-(dimethylamino)acetamide]: 620 nM.
With `CC(=O)C(=O)NCc1cc2cc(Cl)c(OCc3cc(C)no3)cc2[nH]1` [Compound 582, N-((5-chloro-6-((3-methylisoxazol-5-yl)methoxy)-1H-indol-2-yl)methyl)-2-oxopropanamide], the IC50 stood at 455 nM.
Next, `CC1(C(=O)NCc2cc3cc(Cl)c(CCn4ccnn4)cc3[nH]2)CC1` [Compound 583, N-((6-(2-(1H-1,2,3-triazol-1-yl)ethyl)-5-chloro-1H-indol-2-yl)methyl)-1-methylcyclopropane-1-carboxamide]: 1520 nM; `CC1(C(=O)NCc2cc3cc(Cl)c(CCn4ncnn4)cc3[nH]2)CC1` [Compound 584, N-((6-(2-(2H-tetrazol-2-yl)ethyl)-5-chloro-1H-indol-2-yl)methyl)-1-methylcyclopropane-1-carboxamide]: 889 nM.
For `CC1(C(=O)NCc2cc3cc(Cl)c(CCn4cnnn4)cc3[nH]2)CC1` [Compound 585, N-((6-(2-(1H-tetrazol-1-yl)ethyl)-5-chloro-1H-indol-2-yl)methyl)-1-methylcyclopropane-1-carboxamide], the 50% inhibitory concentration (IC50) is above 9230 nM.
